Experiment [1] relates to nasal potential difference. Kind of experiment: Nasal potential difference measurement in a human volunteer (Knowles protocol). It counts as in vivo. Conditions: L-ascorbic acid 100 μM in luminal perfusate; amiloride, chloride-free solution. The protocol:
In vivo, chloride secretion may be assessed using measurements of nasal potential differences in a mammal, such as a human or a mouse. […] The nasal potential difference is measured as the electrical potential measured on the nasal mucosa with respect to a skin electrode placed on a slightly scratched skin part (see Alton et al., Eur. Respir. J. 3:922-926, 1990) or with respect to a subcutaneous needle (see Knowles et al., Hum. Gene Therapy 6:445-455, 1995). Nasal potential difference is evaluated in the presence and absence of test compound, and those compounds that results in a statistically significant increase in nasal potential difference stimulate chloride transport.
The effect of quercetin on nasal potential difference (PD) measurement in a healthy human volunteer was measured as described by Knowles et al., Hum. Gene Therapy 6:445-455, 1995.
Nasal potential difference measurement was performed on a human volunteer according to a protocol by Knowles et al., Hum. Gene Therapy 6:445-455, 1995. Addition of L-ascorbic acid (100 μM) to the luminal perfusate in the nose (in the presence of amiloride (blocks Na currents) and in chloride-free solution) hyperpolarized nasal potential difference (PD) by 6.3 mV (FIG. 17). […] Stimulation was reversed by washing out drugs with NaCl Ringer solution.

For experiment [2], the system named is intracellular cAMP levels. Kind of experiment: Cyclic AMP measurements in Calu-3 cells (competitive immunoassay). In kind it is cell-based, human. Here is the method: Cyclic AMP measurements. […] Cellular cAMP levels were measured in non-acetylated samples using a competitive immunoassay for cAMP (R&D systems, Minneapolis, Minn.). The regulatory role of vitamin C on Cl ion channel activity was studied in Calu-3 airway cells which express large amounts of native CFTR as their major Cl conductance ([…]., Widdicombe, J. H. & Wine, J. J. (1994) Am. J. Physiol. 266, […]-[…]). […] Details of the single channel recording are illustrated in FIG. 20C. […] At negative potentials no channel openings were resolved indicating Cl-over-gluconate selectivity. Cyclic AMP is the major intracellular messenger for the activation of CFTR. We tested the possibility that L-ascorbic acid increased intracellular cAMP levels [cAMP], by either turning on cAMP production or preventing cAMP degradation. FIG. 20E compares whole cell cAMP levels of Calu-3 cells challenged with either increasing concentrations of L-ascorbic acid or the cAMP agonist forskolin.

The test system of experiment [3] is nasal potential difference (NPD). Kind of experiment: Nasal potential difference (NPD) measurements in healthy volunteers, Example 12. It counts as in vivo, human. The protocol: Nasal potential difference (NPD) measurements. Measurements of NPD were performed in healthy volunteers as described (Illek, B. & Fischer, H., Supra). The study protocol was approved by the Internal Review Board at Children's Hospital Oakland. Solutions and test drugs were perfused into one nostril at ˜5 ml/min at room temperature (23-25° C.). NaCl solution contained (in mM): 145 NaCl, 4 KCl, 1 CaCl2, 1 MgCl2, 10 Hepes, pH=7.4. In Cl free solutions all Cl salts were replaced by the respective gluconate salts. All solutions were sterile filtered before use. NPD was sensed with an Ag/AgCl/agar electrode placed in the perfusing tube with respect to an electrode placed on a slightly scratched skin part on the forearm (Alton, E. W. F. W., Currie, A. D., Logan-Sinclair, R., Warner, J. O., Hodson, M. E. & Geddes, D. M. (1990) Eur. Resp. J. 3, 922-926).
In vivo effects of ascorbic acid on Cl transport were evaluated using the nasal potential difference (NPD) assay for Cl channel function. The Cl-selective NPD was measured in amiloride-containing (100 μm) and chloride-free solutions. These experiments served as an important control to verify the significance of the transepithelial results obtained with ascorbic acid in Calu-3 cells. In close agreement with the transepithelial measurements, NPD was progressively hyperpolarized during the exposure of the nasal mucosa to L-ascorbic acid (by −6.7±0.4 mV, n=3) and the cAMP-stimulating agonist isoproterenol (by −5.5±0.5 mV, n=4) (FIG. 21C). A dose of 300 μm L-ascorbic acid hyperpolarized NPD to 72% of the NPD in presence of the cAMP agonist isoproterenol (10 μM).

The test system of the next experiment is Calu-3 monolayers. Kind of experiment: Transepithelial short-circuit current (Isc) across unstimulated Calu-3 monolayers. The following applies: compound added to mucosal (or serosal) perfusion; L-ascorbic acid 100 μM; dehydroascorbic acid 10, 100 or 300 μM. It counts as cell-based, human. The procedure, abridged: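 Unstimulated Calu-3 monolayers given compound on the mucosal side at increasing concentrations. Chloride current recorded with serosal-to-mucosal chloride gradient at 0 mV, 2 mV pulses. Forskolin (20 μM, serosal) used for comparison.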

“Also recorded” adds a separate entry of the source.

For the compound `O=C1O[C@H](C(O)CO)C(O)=C1O` (stereo partly drawn) [L-ascorbic acid, L-xyloascorbic acid], the “hyperpolarized nasal potential difference (PD) by” value in experiment [1] is reported as 6.3 mV. The “cAMP level stimulated by 100 nM forskolin” value in experiment [2] (300 μM L-ascorbate + 100 nM forskolin) was “did not alter the elevated cAMP level”. Further, in experiment [2] (L-ascorbate from 100 μM to 10 mM, 15 min), the “resting intracellular cAMP level” value is on record as “did not result in a detectable increase”. For the same compound, the “NPD hyperpolarized to % of the NPD in presence of isoproterenol” value in experiment [3] (300 μm L-ascorbic acid vs isoproterenol 10 μM) was found to be 72%. For the same compound, the “NPD hyperpolarized by” value in experiment [3] (L-ascorbic acid, amiloride (100 μm), chloride-free, n=3) is −6.7±0.4 mV. For the same compound, in the experiment with Calu-3 monolayers, the “transepithelial chloride currents in unstimulated tissue” value is reported as “very effectively stimulated transepithelial chloride secretion; also recorded: very effectively stimulated transepithelial chloride currents”.

For the origin of these results see patent US8138158B2, “Compositions and methods for therapy for diseases characterized by defective chloride transport” (Children's Hospital & Research Center at Oakland, priority 1997, dated 2012).
